This passage reports IC50 results from ChEMBL document CHEMBL1147623, “Interference of the galactose-dependent binding of lectins by novel pentapeptide ligands” (Bioorg Med Chem Lett, 2004).

Assay [1] in a line: Inhibition of CG-14 binding was determined in solid phase assay. Also on record: species or system Gallus gallus.
Assay [2] in a line: Inhibition of galectin-1 binding was determined in solid phase assay.

Usually IC50 stands for the concentration at which inhibition is half-maximal. High values mean lower potency, low ones higher potency. `CC(C)C[C@H](NC(=O)[C@H](Cc1ccc(O)cc1)NC(=O)[C@@H](CC(=O)O)NC(=O)COCC(=O)NCCCOCCOCCOCCCN)C(=O)N[C@@H](Cc1ccc(O)cc1)C(=O)N[C@@H](Cc1ccccc1)C(N)=O`: the results for the IC50 in assay [1] and in assay [2] were 6.9 mM and 8 mM, respectively.
As to `CC(O)[C@@H](NC(=O)COCC(=O)NCCCOCCOCCOCCCN)C(=O)N[C@@H](Cc1ccc(O)cc1)C(=O)N[C@H](CC(=O)O)C(=O)N[C@@H](Cc1ccc(O)cc1)C(=O)N[C@@H](Cc1ccccc1)C(N)=O` (some centres undefined), the IC50 amounted to 7.5 mM in assay [1] and 5.2 mM in assay [2].
